Several values for one entry are separate records, joined by “and”; a condition that tells them apart may be missing. Identical values can stand only once.
Legend:
NL5901 worms = test: Motility assay of NL5901 worms (WMicroTracker ARENA); assay type: in vivo, C. elegans; details: for Motility of NL5901 worms + NS132: individual trials
Method: Briefly, all worm strains were bleached at the same time and the eggs were incubated on PLATE 1. On day two, the worms were divided into two batches. […] The liquid media for PLATE 4 A/B was prepared with 67.28% (v/v) of M9 buffer, 75 μM FUDR, 0.1% of 1 M magnesium sulfate (v/v), 0.1% of 1 M calcium chloride (v/v), 2.5% of 1 M potassium phosphate solution (pH 6, v/v), and 30% (v/v) of OP50 (0.5 OD600nm). […] To test the effect of each ligand on disease worm strains (NL5901 or UA196), there were four conditions were used in PLATE 4 A/B: […] The assay was started on day four using the WMicroTracker ARENA plate reader (Phylumtech, Santa Fe, Argentina) at 20 °C for 1 h per day over a 14-day period at intervals of 24 h. The WMicroTracker ARENA plate reader uses a large array of infrared light microbeams in each well of the plate to detect the interference caused by the movement of the worms. The output by the ARENA plate reader is an average of the overall movement of all worms present in each well, which is denoted as the motility of the worms in each well. […] After collecting the data each day, the PLATE 4 A/B was again placed on the shaker (100 rpm) at 20 °C in the incubator. The PLATE 4 A/B was on the on the shaker (100 rpm) at 20 °C in the incubator the whole duration of the experiment except only when the reading was collected on the WMicroTracker ARENA plate reader for 1 h.

UA196 worms = test: Chemotaxis assay of UA196 worms; assay type: in vivo, C. elegans; details: 50 µM ligand, day 10, E. coli attractant vs ethanol repellent
Method: For chemotaxis assay, the Chemotaxis (CTX) media plates (2% Agar, 5 mM KH2PO4, 1 mM CaCl2, 1 mM MgSO4, 75 µM FUDR), referred to as PLATE 7, and CTX buffer (5 mM KH2PO4, 1 mM CaCl2, and 1 mM MgSO4) were prepared using previous protocols[24],[78],[85],[86]. The PLATE 7 (without ligand) were treated with ligand (50 µM, stock conc. = 10 mM in DMSO) that was dissolved in CTX buffer (total volume = 300 µL) and was spotted atop the CTX media plates at 20 °C, referred to as PLATE 8. For CTX assay, we prepared another plate referred to as PLATE 9, which was PLATE 7 divided into four equal quadrants and designated as A and C (diagonally opposite), B and D (diagonally opposite). […] The experiment on the WMicroTracker ARENA plate reader (Phylumtech, Santa Fe, Argentina) started within 1 h of the transfer of the worms at 20 °C. […] On day 3, a total of 50 worms were transferred to the center of the PLATE 9 using CTX buffer ( ~20 µL) and the number of worms were counted under an Olympus microscope (SZ-6145, Waltham, MA). […] The worm activity was monitored using the WMicroTracker ARENA plate reader (Phylumtech, Santa Fe, Argentina) at 20 °C for 2 h. […] For day 10, 50 worms (N2 or UA196) from PLATE 7 (without ligand) or PLATE 8 (with 50 µM ligand) were transferred to PLATE 9 using CTX buffer ( ~ 20 µL) and the number of worms were counted under an Olympus microscope (SZ-6145, Waltham, MA). […]

αS fibers (PMCA) = target: T1, αS fibers (PMCA) (Homo sapiens, UniProt P37840); test: Protein misfolding cyclic amplification assay (PMCA), ThT readout; assay type: biochemical
T1 construct: made in house; host or cells: E. coli BL21(DE3)
Method: The PMCA assay was performed according to a previously described protocol. Briefly, an αS solution (100 µM) was prepared in PBS and 60 µL of the solution was placed in a 200 µL Polymerase Chain Reaction (PCR) tube and the mixture was subjected to five 24 h cycles of 1 min shaking (1200 rpm) and 29 min incubation at 37 °C. Every 24 h, 1 µL of αS solution was passaged to seed 60 µL of fresh soluble monomeric αS solution. The seeding cycle was repeated for five days, after which the ThT signal was measured for all five passages. For the preparation of PMCA samples of αS in the presence of NS132, a molar ratio of 1:1 (αS:NS132) was maintained. All experiments were performed in triplicate. The reported ThT intensity values are the average of three separate experiments with the error bars representing the standard deviations.

ThT intensity of PMCA sample, individual trials (αS fibers (PMCA); Cycle 1, αS:NS132 1:1, before PK treatment): 58 and 56 and 50
ThT intensity of PMCA sample, individual trials (αS fibers (PMCA); Cycle 2, αS:NS132 1:1): 63 and 49 and 51
ThT intensity of PMCA sample, individual trials (αS fibers (PMCA); Cycle 3, αS:NS132 1:1): 57 and 62 and 53
ThT intensity of PMCA sample, individual trials (αS fibers (PMCA); Cycle 4, αS:NS132 1:1): 60 and 48 and 64
ThT intensity of PMCA sample, individual trials (αS fibers (PMCA); Cycle 5, αS:NS132 1:1): 86 and 68 and 66
change in ThT intensity of PMCA samples, in words (αS fibers (PMCA); equimolar ratio, up to cycle five): did not observe any significant change
Compound: Cc1ccc(NC(=O)c2ccc(NC(=O)c3ccc([N+](=O)[O-])c(NCCc4c[nH]c5ccccc45)n3)c(NCC3CCCCC3)n2)c(OCC(=O)O)n1 [NS132]
motility of NL5901 worms, in words (NL5901 worms; 50 μM ligand on day two and day four): increase in the motility
Motility of NL5901 worms + NS132 (NL5901 worms; Day 4): 255 and 287 and 207 and 297
Motility of NL5901 worms + NS132 (NL5901 worms; Day 5): 181 and 139 and 108 and 189
Motility of NL5901 worms + NS132 (NL5901 worms; Day 6): 201 and 130 and 176 and 121
Motility of NL5901 worms + NS132 (NL5901 worms; Day 7): 101 and 172 and 160 and 83
Motility of NL5901 worms + NS132 (NL5901 worms; Day 8): 129 and 117 and 94 and 99
Motility of NL5901 worms + NS132 (NL5901 worms; Day 9): 107 and 89 and 145 and 65
Motility of NL5901 worms + NS132 (NL5901 worms; Day 10): 127 and 107 and 105 and 52
Motility of NL5901 worms + NS132 (NL5901 worms; Day 11): 74 and 83 and 88 and 72
Motility of NL5901 worms + NS132 (NL5901 worms; Day 12): 57 and 70 and 69 and 56
Motility of NL5901 worms + NS132 (NL5901 worms; Day 13): 38 and 34 and 42 and 33
Motility of NL5901 worms + NS132 (NL5901 worms; Day 14): 27 and 43 and 19 and 20
behavioral deficits / chemotaxis index of UA196 worms, in words (UA196 worms): able to rescue behavioral deficits

From publication PMC11061149, “Protein mimetic 2D FAST rescues alpha synuclein aggregation mediated early and post disease Parkinson’s phenotypes” (Nature Communications, 2024)
